Data published in ChEMBL document CHEMBL3885881, “DrugMatrix”.

Species: Rattus norvegicus
Assay: DrugMatrix - Regimen: Daily Repeat
Assay type: toxicity, organism-based, Sprague-Dawley
Parameters: regimen Daily Repeat, gender Male, age 6-8 weeks
Details: in vivo, po, route oral GAVAGE, vehicle 100 % WATER; for ABSOLUTE BASOPHIL / ABSOLUTE EOSINOPHIL / ABSOLUTE LYMPHOCYTE / ABSOLUTE MONOCYTE / ABSOLUTE SEGMENTED NEUTROPHIL / BASOPHIL / EOSINOPHIL / ERYTHROCYTE COUNT / HEMATOCRIT / HEMOGLOBIN / LEUKOCYTE COUNT / LYMPHOCYTE / MEAN CORPUSCULAR HEMOGLOBIN / MEAN CORPUSCULAR HEMOGLOBIN CONCENTRATION / MEAN CORPUSCULAR VOLUME / MONOCYTE / NEUTROPHIL / NUCLEATED RED BLOOD CELLS / PLATELET COUNT: tissue Blood; for ALANINE AMINOTRANSFERASE / ALBUMIN / ALKALINE PHOSPHATASE / ASPARTATE AMINOTRANSFERASE / BLOOD UREA NITROGEN / CARBON DIOXIDE / CHLORIDE / CHOLESTEROL / CREATINE PHOSPHOKINASE / CREATININE / GLUCOSE / LACTATE DEHYDROGENASE / LIPASE / PHOSPHORUS / POTASSIUM / SODIUM / TOTAL BILIRUBIN / TOTAL PROTEIN / URIC ACID: tissue Plasma
[1] = 0 mg/kg, 72 h, dose level Control, time 3 day
[2] = 0 mg/kg, 120 h, dose level Control, time 5 day
[3] = 1000 mg/kg, 72 h, dose level High, time 3 day
[4] = 1000 mg/kg, 120 h, dose level High, time 5 day

Which results are given for `Cc1cc(NS(=O)(=O)c2ccc(N)cc2)no1` [SULFAMETHOXAZOLE]?
ABSOLUTE BASOPHIL [1]: 0 CELLS/uL; ABSOLUTE EOSINOPHIL [1]: 102 CELLS/uL; ABSOLUTE LYMPHOCYTE [1]: 12758 CELLS/uL; ABSOLUTE MONOCYTE [1]: 197.17 CELLS/uL; ABSOLUTE SEGMENTED NEUTROPHIL [1]: 1259.5 CELLS/uL; BASOPHIL [1]: 0%; EOSINOPHIL [1]: 0.83%; ERYTHROCYTE COUNT [1]: 5.3 x10E6/uL; HEMATOCRIT [1]: 33.47%; HEMOGLOBIN [1]: 13.12 G/DL; LEUKOCYTE COUNT [1]: 14.32 x10E3/uL; LYMPHOCYTE [1]: 89.33%; MEAN CORPUSCULAR HEMOGLOBIN [1]: 24.8 pg; MEAN CORPUSCULAR HEMOGLOBIN CONCENTRATION [1]: 39.18 G/DL; MEAN CORPUSCULAR VOLUME [1]: 63.25 fL; MONOCYTE [1]: 1.33%; NEUTROPHIL [1]: 8.5%; NUCLEATED RED BLOOD CELLS [1]: 0 /100WBC; PLATELET COUNT [1]: 1313.17 x10E3/uL; ALANINE AMINOTRANSFERASE [1]: 52.67 u/L; ALBUMIN [1]: 4.05 G/DL; ALKALINE PHOSPHATASE [1]: 372 u/L; ASPARTATE AMINOTRANSFERASE [1]: 82.83 u/L; BLOOD UREA NITROGEN [1]: 15 mg/dL; CARBON DIOXIDE [1]: 25.67 mmol/L; CHLORIDE [1]: 102.17 MEQ/L; CHOLESTEROL [1]: 68.83 mg/dL; CREATINE PHOSPHOKINASE [1]: 285 u/L; CREATININE [1]: 0.18 mg/dL; GLUCOSE [1]: 149.17 mg/dL; LACTATE DEHYDROGENASE [1]: 263.83 u/L; LIPASE [1]: 10.17 u/L; PHOSPHORUS [1]: 12.58 mg/dL; POTASSIUM [1]: 6.58 MEQ/L; SODIUM [1]: 144.22 MEQ/L; TOTAL BILIRUBIN [1]: 0.22 mg/dL; TOTAL PROTEIN [1]: 5.83 G/DL; URIC ACID [1]: 1.58 mg/dL; ABSOLUTE BASOPHIL [2]: 0 CELLS/uL; ABSOLUTE EOSINOPHIL [2]: 24 CELLS/uL; ABSOLUTE LYMPHOCYTE [2]: 11134.17 CELLS/uL; ABSOLUTE MONOCYTE [2]: 56.33 CELLS/uL; ABSOLUTE SEGMENTED NEUTROPHIL [2]: 1235.5 CELLS/uL; BASOPHIL [2]: 0%; EOSINOPHIL [2]: 0.17%; ERYTHROCYTE COUNT [2]: 5.68 x10E6/uL; HEMATOCRIT [2]: 35.72%; HEMOGLOBIN [2]: 13.93 G/DL; LEUKOCYTE COUNT [2]: 12.45 x10E3/uL; LYMPHOCYTE [2]: 89.5%; MEAN CORPUSCULAR HEMOGLOBIN [2]: 24.63 pg; MEAN CORPUSCULAR HEMOGLOBIN CONCENTRATION [2]: 39.13 G/DL; MEAN CORPUSCULAR VOLUME [2]: 62.97 fL; MONOCYTE [2]: 0.5%; NEUTROPHIL [2]: 9.83%; NUCLEATED RED BLOOD CELLS [2]: 0 /100WBC; PLATELET COUNT [2]: 1204 x10E3/uL; ALANINE AMINOTRANSFERASE [2]: 59.5 u/L; ALBUMIN [2]: 4.38 G/DL; ALKALINE PHOSPHATASE [2]: 415.67 u/L; ASPARTATE AMINOTRANSFERASE [2]: 91.33 u/L; BLOOD UREA NITROGEN [2]: 17 mg/dL; CARBON DIOXIDE [2]: 26.33 mmol/L; CHLORIDE [2]: 104.17 MEQ/L; CHOLESTEROL [2]: 77 mg/dL; CREATINE PHOSPHOKINASE [2]: 249.67 u/L; CREATININE [2]: 0.21 mg/dL; GLUCOSE [2]: 148.33 mg/dL; LACTATE DEHYDROGENASE [2]: 168.5 u/L; LIPASE [2]: 10.17 u/L; PHOSPHORUS [2]: 12.92 mg/dL; POTASSIUM [2]: 7.09 MEQ/L; SODIUM [2]: 148.37 MEQ/L; TOTAL BILIRUBIN [2]: 0.23 mg/dL; TOTAL PROTEIN [2]: 6.3 G/DL; URIC ACID [2]: 1.77 mg/dL; ABSOLUTE BASOPHIL [3]: 0 CELLS/uL; ABSOLUTE EOSINOPHIL [3]: 124.33 CELLS/uL; ABSOLUTE LYMPHOCYTE [3]: 12097 CELLS/uL; ABSOLUTE MONOCYTE [3]: 47.67 CELLS/uL; ABSOLUTE SEGMENTED NEUTROPHIL [3]: 1331 CELLS/uL; BASOPHIL [3]: 0%; EOSINOPHIL [3]: 1%; ERYTHROCYTE COUNT [3]: 5.34 x10E6/uL; HEMATOCRIT [3]: 34.63%; HEMOGLOBIN [3]: 13.53 G/DL; LEUKOCYTE COUNT [3]: 13.6 x10E3/uL; LYMPHOCYTE [3]: 89%; MEAN CORPUSCULAR HEMOGLOBIN [3]: 25.37 pg; MEAN CORPUSCULAR HEMOGLOBIN CONCENTRATION [3]: 39.07 G/DL; MEAN CORPUSCULAR VOLUME [3]: 64.87 fL; MONOCYTE [3]: 0.33%; NEUTROPHIL [3]: 9.67%; NUCLEATED RED BLOOD CELLS [3]: 0 /100WBC; PLATELET COUNT [3]: 1220 x10E3/uL; ALANINE AMINOTRANSFERASE [3]: 53.33 u/L; ALBUMIN [3]: 4.13 G/DL; ALKALINE PHOSPHATASE [3]: 298.33 u/L; ASPARTATE AMINOTRANSFERASE [3]: 88.67 u/L; BLOOD UREA NITROGEN [3]: 16 mg/dL; CARBON DIOXIDE [3]: 26 mmol/L; CHLORIDE [3]: 101 MEQ/L; CHOLESTEROL [3]: 79.67 mg/dL; CREATINE PHOSPHOKINASE [3]: 356.33 u/L; CREATININE [3]: 0.17 mg/dL; GLUCOSE [3]: 141.33 mg/dL; LACTATE DEHYDROGENASE [3]: 488.67 u/L; LIPASE [3]: 10.67 u/L; PHOSPHORUS [3]: 12.43 mg/dL; POTASSIUM [3]: 6.92 MEQ/L; SODIUM [3]: 145.43 MEQ/L; TOTAL BILIRUBIN [3]: 0.2 mg/dL; TOTAL PROTEIN [3]: 6.07 G/DL; URIC ACID [3]: 1.63 mg/dL; ABSOLUTE BASOPHIL [4]: 0 CELLS/uL; ABSOLUTE EOSINOPHIL [4]: 0 CELLS/uL; ABSOLUTE LYMPHOCYTE [4]: 14525.67 CELLS/uL; ABSOLUTE MONOCYTE [4]: 88 CELLS/uL; ABSOLUTE SEGMENTED NEUTROPHIL [4]: 1019.67 CELLS/uL; BASOPHIL [4]: 0%; EOSINOPHIL [4]: 0%; ERYTHROCYTE COUNT [4]: 4.62 x10E6/uL; HEMATOCRIT [4]: 29.8%; HEMOGLOBIN [4]: 12.13 G/DL; LEUKOCYTE COUNT [4]: 15.63 x10E3/uL; LYMPHOCYTE [4]: 94%; MEAN CORPUSCULAR HEMOGLOBIN [4]: 26.43 pg; MEAN CORPUSCULAR HEMOGLOBIN CONCENTRATION [4]: 40.77 G/DL; MEAN CORPUSCULAR VOLUME [4]: 64.9 fL; MONOCYTE [4]: 0.33%; NEUTROPHIL [4]: 5.67%; NUCLEATED RED BLOOD CELLS [4]: 0 /100WBC; PLATELET COUNT [4]: 1090.33 x10E3/uL; ALANINE AMINOTRANSFERASE [4]: 53.33 u/L; ALBUMIN [4]: 4.1 G/DL; ALKALINE PHOSPHATASE [4]: 272.5 u/L; ASPARTATE AMINOTRANSFERASE [4]: 97 u/L; BLOOD UREA NITROGEN [4]: 17 mg/dL; CARBON DIOXIDE [4]: 21 mmol/L; CHLORIDE [4]: 107.5 MEQ/L; CHOLESTEROL [4]: 73 mg/dL; CREATINE PHOSPHOKINASE [4]: 1048.33 u/L; CREATININE [4]: 0.21 mg/dL; GLUCOSE [4]: 149 mg/dL; LACTATE DEHYDROGENASE [4]: 184 u/L; LIPASE [4]: 12 u/L; PHOSPHORUS [4]: 10.23 mg/dL; POTASSIUM [4]: 6.38 MEQ/L; SODIUM [4]: 147.2 MEQ/L; TOTAL BILIRUBIN [4]: 0.2 mg/dL; TOTAL PROTEIN [4]: 5.97 G/DL; URIC ACID [4]: 1.2 mg/dL
